Tests used:
[1] = test system: PBMCs from cancer patients and healthy donors; experiment: in vitro IFNγ ELISPOT of PBMCs after 7 days with peptide and IL-2; type: cell-based, human
Method: PBMCs from healthy donors were isolated using density gradient separation over LymphoprepTM (STEMCELL Technologies) and cryopreserved at -150° C. in FBS supplemented with 10% DMSO. PBMCs from cancer patients were isolated from blood sample a minimum of four weeks after the termination of any anti-cancer therapy. The protocol was approved by the Scientific Ethics Committee for The Capital Region of Denmark and conducted in accordance with the provisions of the Declaration of Helsinki. Written informed consent from the patients was obtained before study entry. […] The sequences of the peptides used in these experiments are shown in full below in alignment with each other, and are also set out in the section entitled “Sequences”). Peptides are described by SEQ ID NO, by name, or by reference to the start and end positions of each peptide sequence within the full length sequence of Arginase 1. Each may be used interchangeably. For example, the peptide of SEQ ID NO: 1 may alternatively be referred to by the name ArgLong2, or may alternatively be referred to as […]-206 (given a start position of 169 and end position of 206). The intended reference in each case will be clear from the context. For in vitro ELISPOT, PBMCs from cancer patients and healthy donors were pulsed with 20 μM of Arginase 1-derived peptides and 120 U/ml IL-2 in 24-well plates for 7 days before being used in an ELISPOT assay. The cells were placed in 96-well nitrocellulose ELISPOT plates (MultiScreen MAIP […]; Millipore) pre-coated with IFNγ capture antibody (Mabtech). Arginase peptides added to a final concentration of 5 μM and plates incubated at 37° C. for 14-16 hours. After the incubation the cells were washed off and secondary biotinylated Ab (Mabtech, cat. 3420-6-1000) was added for 2 hours at room temperature. Unbound secondary antibody was washed off and streptavidin conjugated alkaline phosphatase (AP) (Mabtech, cat. 3310-10) was added for 1 hour at room temperature. Unbound conjugated enzyme was washed off and the assay was developed by adding BCIP/NBT substrate (Mabtech, cat. 3650-10). Developed ELISPOT plates were analyzed on CTL ImmunoSpot S6 Ultimate-V analyzer using Immunospot software v5.1. Responses were reported as the difference between average numbers of spots in wells stimulated with Arginase 1 and wells without added peptide.

[2] = test system: PBMCs from healthy donors and cancer patients; experiment: ex vivo IFNγ ELISPOT of PBMCs without prior peptide stimulation; type: cell-based, human; settings: 4 healthy donors and 2 cancer patients; FIG. 4A
Method: For in vitro ELISPOT, PBMCs from cancer patients and healthy donors were pulsed with 20 μM of Arginase 1-derived peptides and 120 U/ml IL-2 in 24-well plates for 7 days before being used in an ELISPOT assay. The cells were placed in 96-well nitrocellulose ELISPOT plates (MultiScreen MAIP N45; Millipore) pre-coated with IFNγ capture antibody (Mabtech). Arginase peptides added to a final concentration of 5 μM and plates incubated at 37° C. for 14-16 hours. After the incubation the cells were washed off and secondary biotinylated Ab (Mabtech, cat. 3420-6-1000) was added for 2 hours at room temperature. Unbound secondary antibody was washed off and streptavidin conjugated alkaline phosphatase (AP) (Mabtech, cat. 3310-10) was added for 1 hour at room temperature. Unbound conjugated enzyme was washed off and the assay was developed by adding BCIP/NBT substrate (Mabtech, cat. 3650-10). Developed ELISPOT plates were analyzed on CTL ImmunoSpot S6 Ultimate-V analyzer using Immunospot software v5.1. Responses were reported as the difference between average numbers of spots in wells stimulated with Arginase 1 and wells without added peptide.
PBMCs from 4 healthy donors and 2 cancer patients (1 breast cancer and 1 malignant melanoma) that had shown strong responses in in vitro ELISPOT were directly tested for responses to ArgLong2 peptide in ex vivo IFNγ ELISPOT.

[3] = test system: PBMCs stimulated with IL-4, IL-13 or IL-2; experiment: IFNγ ELISPOT of PBMCs pre-stimulated with Th2 cytokine (IL-4/IL-13) or IL-2; type: cell-based, human
From the text: To check for IL-4 induced Arg1 responses, PBMCs were stimulated with IL-4 (100 or 50 U/ml) and/or IL-2 (120 or 60 U/ml) for a week before being set up in the ELISPOT assay as described above.
The PBMCs were thawed and stimulated with IL-4, (50 U/ml or 100 U/ml), IL-2 (120 U/ml) or a combination of IL-4 and IL-2 (50 U/ml and 60 U/ml respectively) for one week before being tested in IFNγ ELISPOT for responses against ArgLong2. Non-stimulated cells were used as control.
Next, PBMCs from 2 cancer patients (BC30 (breast cancer), MM27 (malignant melanoma)) and 6 healthy donors that had previously shown strong spontaneous ex vivo responses against ArgLong2 were stimulated with either low dose IL-2 (120 U/ml) or IL-4 (100 U/ml) for 7 days. Non-stimulated cells were used as control. After 7 days in culture, PBMCs were tested for reactivity against ArgLong2 in IFNγ ELISPOT.
In a separate experiment, PBMCs from a healthy donor (HD22, known to have a pre-existing ex vivo response against ArgLong2) were treated with IL-4 (100 U/ml) or IL-13 (20 U/ml) for 7 days in order to increase presentation of the Arginase 1-derived peptides in the PBMC culture and thus stimulate the intrinsic ArgLong2 specific T cells present in the PBMCs. After 7 days of stimulation with IL-4 or IL-13, the PBMCs were analysed in IFNγ ELISPOT assay to check the changes in the frequency of the ArgLong2-specific T cells.

C57BL/6 mice = experiment: Peptide vaccination of C57BL/6 mice, IFNγ ELISPOT of spleen and draining lymph node cells; type: in vivo, mouse; settings: 100 μg peptide s.c. with Montanide ISA 51 VG; one vaccination; day 7; spleen and dLNs; FIG. 6
Method: Animals were vaccinated subcutaneously with 100 μg peptide in DMSO/H2O in a 1:1 emulsion with incomplete Montanide ISA 51 VG. Montanide ISA 51 VG+DMSO/H2O served as a control vaccine. For subsequent analysis of the immune response to the ArgLong2 peptide, mice were sacrificed on day 7 and spleen and draining lymph nodes (dLNs) were harvested for ELISPOT setup.
Murine immune cells were subjected to ELISPOT analysis. Single cell suspension was prepared from spleen or dLNs by passage through a cell strainer. After lysis of red blood cells, 0.6-0.8×10^6 cells/well were seeded into ELISPOT plates coated with anti-IFNγ antibody. Peptide of interest was added to designated wells and cells were incubated overnight with peptide. The next day, cells were removed, plates washed and incubated with biotinylated detection antibody. Finally, after addition of Streptavidin-ALP and substrate visible spots appear. Each spot corresponds to an individual IFNγ producing cell. Plates were analysed in an Immunospot analyser and plotted.

## ISAKDIVYIGLRDVDPGEHYILKTLGIKYFSMTEVDRL (Peptide fragment of human Arginase 1 (ArgLong2)) [38-mer, positions 169-206 of full length human Arginase 1]
[1]; PBMCs from 6 healthy donors, peptide and low dose IL-2 for 1 week, FIG. 1
  responses in IFNγ ELISPOT (in words): superior at stimulating T cell responses
[1]; TNTC in six healthy donors and 2 cancer patients, 2.2-5×10^5 PBMCs/well, FIG. 2
  peptide specific spots in IFNγ ELISPOT where too numerous to count (TNTC): > 500 spots
[1]; out of 6 healthy donors, PBMCs stimulated with peptide and low dose IL-2 for 1 week, FIG. 1
  donors with high responses in IFNγ ELISPOT: 4 donors
[1]; out of 16 cancer patients (8 melanoma, 6 multiple myeloma, 1 breast cancer, 1 renal cell carcinoma), strong responses counted for ArgLong2, FIG. 2
  cancer patients showing responses in IFNγ ELISPOT: 8 cancer patients
[1]; out of 19 healthy donors, strong responses counted for ArgLong2, FIG. 2
  healthy donors showing responses in IFNγ ELISPOT: 14 healthy donors
[2]
  spontaneous responses in ex vivo IFNγ ELISPOT: significant spontaneous responses in all 6 donors
[3]; healthy donor HD22, IL-4 100 U/ml or IL-13 20 U/ml for 7 days, vs untreated control, FIG. 10
  ArgLong2 responses in IL-4 and IL-13 treated PBMC cultures: Increased ArgLong2 responses
[3]; out of 8 cultures (2 cancer patients, 6 healthy donors), IL-4 100 U/ml for 7 days vs unstimulated and IL-2 stimulated controls, FIG. 5B
  cultures with increased responses in IL-4 stimulated cultures: 6 cultures
[3]; single melanoma patient, IL-4 50 or 100 U/ml, IL-2 120 U/ml or IL-4+IL-2 for one week, compared with no stimulation or IL-2 alone, FIG. 5A
  responses against ArgLong2 after IL-4 stimulation of PBMCs: Strong significant responses were seen in all IL-4 stimulated groups
C57BL/6 mice
  immunogenicity in mice (vaccine-specific T cell responses, IFNγ ELISPOT): strongly immunogenic
